Source: publication PMC9645390, “Amphiphilic stilbene derivatives attenuate the neurotoxicity of soluble Aβ42 oligomers by controlling their interactions with cell membranes” (Chemical Science, 2022)
Entries after “also recorded” stand apart in the source; their conditions may differ.

Columns and labels:
[1] = tested on: Cu2+–Aβ42 species in Neuro2A cells; experiment: Cu2+-Aβ42-induced toxicity in Neuro2A cells (Alamar Blue); format: cell-based, mouse; details: [Aβ42] = [Cu2+] = 40 μM, compound 10 μM (ZY-12-OMe 5 μM), 40 h
Experimental: As mentioned above, compounds that are not cytotoxic at 10 μM, including ZY-12-MT, ZY-15-MT, ZY-15-OMe, ZY-17-MT, ZY-5-MT, ZY-5-DT, ZY-5-OMe, and ZY-12-OMe, were chosen for this study. Firstly, during the control studies, we observed that monomeric Aβ42 led to negligible neurotoxicity. Nevertheless, in the presence of both Cu^2+ and monomeric Aβ42, there was a significant cell death, which is likely due to the Cu^2+ associated neurotoxic Aβ42 oligomers formation.[46] […] According to the docking results, ZY-12-MT, ZY-15-OMe, ZY-15-MT, and ZY-5-OMe interact with Aβ42 tetramers mainly through residues His6, Asp7, Tyr10 (via hydrogen bonds), and Tyr10 (via π–π interactions). Some reports have also shown that His6, Asp7, and Tyr10 are potentially involved in the Cu–Aβ interactions, which explains why the compounds are able to attenuate the Cu–Aβ toxicity.[48]
Fig. 9 Cell viability results upon incubation of Neuro2A cells with monomeric Aβ42 in the presence or absence of metal ions and amphiphilic compounds. Concentrations: [Aβ42] = 40 μM, [Cu^2+] = 40 μM, [ZY-12-MT] = [ZY-15-OMe] = [ZY-15-MT] = [ZY-17-MT] = [ZY-5-OMe] = [ZY-5-MT] = [ZY-5-DT] = 10 μM, [ZY-12-OMe] = 5 μM. The error bars represent the standard deviation from five independent experiments, and the statistical analysis was evaluated according to one-way ANOVA (*p < 0.05).
Alamar Blue assay was chosen for the cytotoxicity studies.3 Mouse neuroblastoma Neuro2A (N2A) cells were grown with DMEM/10% FBS in a petri dish at 37 °C in a humidified atmosphere with 5% CO2. Then N2A cells were seeded in a 96-well plate (1.0 × 10^4/well). After 24 h incubation, cell media was changed to DMEM/N-2, and N2A cells were incubated for another 1 h. […]
For the Cu2+-Aβ-induced toxicity studies, cells were treated monomeric Aβ42, Cu2+, monomeric Aβ42 + Cu2+, and monomeric Aβ42 + Cu2+ + compounds, monomeric Aβ42 + Cu2+ + copper chelators (Me2HTACN or Me3TACN), respectively. After 40 h incubation, Alamar Blue solution (10 μL) was added, and the cells were incubated for another 90 min at 37 °C. The fluorescence intensity of each well was measured at 590 nm (excitation wavelength = 560 nm). […]
10. The effect of copper chelators on Cu2+-Aβ42 neurotoxicity
Figure S8. Cell viability results upon incubation of Neuro2A cells with 10 μM copper chelators (Me2HTACN or Me3TACN) in the presence or absence of 40 μM (Aβ42 + Cu2+). The error bars represent the standard deviation from five independent experiments, and the statistical analysis was evaluated according to one-way ANOVA. […]

[2] = target: T1, human serum albumin (HSA) (Homo sapiens, UniProt P02768); experiment: Fluorescence turn-on with human serum albumin (selectivity); format: binding; details: compound 5 µM, HSA 1 mg/mL, Aβ42 fibrils 25 µM for comparison
T1 construct: purchased
Experimental: To investigate whether these amphiphilic compounds can interact with different Aβ species, we recorded the fluorescence intensity changes in the absence and presence of Aβ42 fibrils and oligomers, respectively, which were prepared as previously reported.[28] […] The enhanced fluorescence intensity and blue shift are possibly due to the restriction in a rotation of the aromatic rings and the changes of hydrophobicity at the Aβ binding sites. […] Comparing the ZY-17 series with the other series of compounds, we believe that the thiophene ring in the stilbene-like binding scaffold is essential for the selectively toward Aβ species, while the more hydrophobic tri-benzene rings might lead to unspecific binding to other proteins; such a design principle will be key for the development of second-generation compounds with increased Aβ-binding selectivity.
Figure S4. Fluorescence turn-on effects of amphiphilic compounds with HAS; [compound] = 5 µM, [Aβ42 fibrils] = […]

[3] = tested on: mouse neuroblastoma N2a cells; experiment: Alamar Blue cytotoxicity assay in N2a cells; format: cell-based; details: 2 to 20 μM

T1 sequence (P02768 25-609): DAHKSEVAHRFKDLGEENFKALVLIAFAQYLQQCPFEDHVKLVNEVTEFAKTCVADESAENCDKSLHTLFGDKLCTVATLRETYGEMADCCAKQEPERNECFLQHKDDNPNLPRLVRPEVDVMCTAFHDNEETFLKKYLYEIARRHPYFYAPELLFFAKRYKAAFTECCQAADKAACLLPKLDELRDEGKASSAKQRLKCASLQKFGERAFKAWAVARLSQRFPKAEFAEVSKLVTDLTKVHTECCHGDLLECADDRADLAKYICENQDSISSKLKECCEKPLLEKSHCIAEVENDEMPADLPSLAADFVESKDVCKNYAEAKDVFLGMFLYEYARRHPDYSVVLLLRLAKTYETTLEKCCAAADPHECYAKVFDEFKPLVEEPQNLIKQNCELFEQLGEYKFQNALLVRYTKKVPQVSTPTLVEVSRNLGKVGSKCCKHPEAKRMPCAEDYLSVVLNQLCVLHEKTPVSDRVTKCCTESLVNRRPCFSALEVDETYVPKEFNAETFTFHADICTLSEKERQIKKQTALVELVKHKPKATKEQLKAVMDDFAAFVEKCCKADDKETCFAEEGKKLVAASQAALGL

Row | Compound | effect on Cu2+–Aβ42-induced toxicity (cell viability, in words) [1] | fluorescence turn-on in the presence of HSA (in words) [2] | cytotoxicity (in words) [3]
1 | COc1cc(/C=C/c2ccc(-c3ccc(N(C)C)cc3)s2)cc(CN2CCN(C)CCN(C)CC2)c1O [ZY-5-OMe] | could significantly increase cell viability |  | 
2 | CN1CCN(C)CCN(Cc2cc(-c3ccc(/C=C/c4ccc(N(C)C)cc4)s3)ccc2O)CC1 [ZY-12-MT] | could significantly increase cell viability |  | 
3 | CN1CCN(C)CCN(Cc2cc(/C=C/c3ccc(-c4ccc(C=O)cc4)s3)ccc2O)CC1 [ZY-15-MT] | could significantly increase cell viability |  | 
4 | COc1cc(/C=C/c2ccc(-c3ccc(C=O)cc3)s2)cc(CN2CCN(C)CCN(C)CC2)c1O [ZY-15-OMe] | could significantly increase cell viability |  | 
5 | COc1cc(OC)cc(-c2ccc(/C=C/c3cc(CN4CCN(C)CCN(C)CC4)c(O)c(CN4CCN(C)CCN(C)CC4)c3)cc2)c1 [ZY-17-DT] |  | even higher fluorescence intensity increase in the presence of HSA than for Aβ42 fibrils | higher cytotoxicity than others
6 | COc1cc(OC)cc(-c2ccc(/C=C/c3cc(CN4CCN(C)CCN(C)CC4)c(O)c(OC)c3)cc2)c1 [ZY-17-OMe] |  | even higher fluorescence intensity increase in the presence of HSA than for Aβ42 fibrils | higher cytotoxicity than others; also recorded: the highest toxicity
